Data published in ChEMBL document CHEMBL4393662, “Structural optimization on a virtual screening hit of smoothened receptor” (Eur J Med Chem, 2019).
Calls of active or inactive are those of the source. The calls are words filed in the database; no cut-off is given here.

How the values were obtained:
HEK293 = experiment: Inhibition of Wnt pathway in HEK293 cells harbouring TCF-luciferase cocultured with LWnt3A cells by Topflash reporter gene assay; assay type: cell-based; conditions: Homo sapiens
Protein smoothened [1] = target: Protein smoothened (Mus musculus, UniProt P56726); experiment: Antagonist activity at Smo receptor in mouse NIH/3T3 cells harboring GRE-Luc assessed as inhibition of SAG-induced Hh signaling pathway preincubated with cells followed by SAG addition measured after 48 hrs by luciferase reporter gene assay; assay type: cell-based
Protein smoothened (Mus musculus, UniProt P56726), sequence (P56726 whole entry): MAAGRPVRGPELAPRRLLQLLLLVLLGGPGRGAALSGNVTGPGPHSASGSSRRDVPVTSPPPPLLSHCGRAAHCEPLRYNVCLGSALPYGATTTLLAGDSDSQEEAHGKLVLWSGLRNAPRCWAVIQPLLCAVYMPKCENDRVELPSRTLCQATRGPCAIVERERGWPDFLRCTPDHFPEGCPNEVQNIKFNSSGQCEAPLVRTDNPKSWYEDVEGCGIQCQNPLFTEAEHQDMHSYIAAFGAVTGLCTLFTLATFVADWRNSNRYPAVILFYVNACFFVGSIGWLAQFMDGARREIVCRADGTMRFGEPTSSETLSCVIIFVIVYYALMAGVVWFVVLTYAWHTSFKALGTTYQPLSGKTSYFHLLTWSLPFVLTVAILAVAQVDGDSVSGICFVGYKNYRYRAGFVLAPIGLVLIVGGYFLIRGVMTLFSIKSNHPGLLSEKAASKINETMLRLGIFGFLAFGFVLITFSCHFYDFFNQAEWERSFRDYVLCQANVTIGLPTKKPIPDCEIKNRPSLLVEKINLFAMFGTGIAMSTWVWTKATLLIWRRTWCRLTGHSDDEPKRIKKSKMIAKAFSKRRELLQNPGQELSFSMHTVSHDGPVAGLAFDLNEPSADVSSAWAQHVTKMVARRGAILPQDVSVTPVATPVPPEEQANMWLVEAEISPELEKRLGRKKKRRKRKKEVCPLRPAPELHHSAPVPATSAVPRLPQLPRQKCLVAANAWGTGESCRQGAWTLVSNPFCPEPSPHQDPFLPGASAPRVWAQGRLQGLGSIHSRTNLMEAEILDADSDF

Medulloblastoma cell = experiment: Antiproliferative activity against mouse Ptch+/- medulloblastoma cells assessed as inhibition of cell growth incubated for 36 hrs by CCK-8 assay; assay type: functional, cell-based
U-251 = experiment: Cytotoxicity activity human U251 cells assessed as reduction of cell viability upto 1000 nM incubated for 48 hrs by CCK-8 assay; assay type: cell-based; conditions: u-251, 48 h
[2] = system: Protein smoothened (Homo sapiens), Q99835 [D473H]; experiment: Antagonist activity at Smo D473H mutant receptor in mouse NIH/3T3 cells assessed as inhibition of Gli1 mRNA expression incubated for 48 hrs by qRT-PCR analysis; assay type: cell-based
Protein smoothened (Homo sapiens), Q99835 [D473H], sequence (Q99835 whole entry D473H): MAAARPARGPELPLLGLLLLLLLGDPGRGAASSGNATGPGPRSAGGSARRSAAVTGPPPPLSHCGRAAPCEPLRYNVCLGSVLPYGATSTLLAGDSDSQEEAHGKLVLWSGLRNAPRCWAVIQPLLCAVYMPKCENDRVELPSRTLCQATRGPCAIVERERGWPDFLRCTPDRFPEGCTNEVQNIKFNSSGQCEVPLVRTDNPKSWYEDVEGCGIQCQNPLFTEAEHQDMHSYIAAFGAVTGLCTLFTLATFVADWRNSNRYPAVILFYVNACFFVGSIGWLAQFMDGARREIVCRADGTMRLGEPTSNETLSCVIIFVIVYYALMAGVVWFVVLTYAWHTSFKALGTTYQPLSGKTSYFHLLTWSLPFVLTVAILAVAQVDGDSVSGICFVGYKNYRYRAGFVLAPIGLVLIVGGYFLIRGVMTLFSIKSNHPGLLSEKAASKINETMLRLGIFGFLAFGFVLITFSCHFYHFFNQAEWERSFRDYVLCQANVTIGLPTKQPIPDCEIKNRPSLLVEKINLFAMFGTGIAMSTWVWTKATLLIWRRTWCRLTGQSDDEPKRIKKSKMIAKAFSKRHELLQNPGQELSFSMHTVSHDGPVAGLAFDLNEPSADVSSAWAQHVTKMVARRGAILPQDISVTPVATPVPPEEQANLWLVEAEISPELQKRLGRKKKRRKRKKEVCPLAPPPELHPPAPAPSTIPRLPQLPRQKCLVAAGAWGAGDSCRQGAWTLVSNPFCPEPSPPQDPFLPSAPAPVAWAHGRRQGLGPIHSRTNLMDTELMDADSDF

CYP3A4 = CYP3A4 (Homo sapiens, UniProt P08684); experiment: Inhibition of CYP3A4 (unknown origin) at 10 uM relative to control; assay type: ADME
CYP3A4, sequence (P08684 whole entry): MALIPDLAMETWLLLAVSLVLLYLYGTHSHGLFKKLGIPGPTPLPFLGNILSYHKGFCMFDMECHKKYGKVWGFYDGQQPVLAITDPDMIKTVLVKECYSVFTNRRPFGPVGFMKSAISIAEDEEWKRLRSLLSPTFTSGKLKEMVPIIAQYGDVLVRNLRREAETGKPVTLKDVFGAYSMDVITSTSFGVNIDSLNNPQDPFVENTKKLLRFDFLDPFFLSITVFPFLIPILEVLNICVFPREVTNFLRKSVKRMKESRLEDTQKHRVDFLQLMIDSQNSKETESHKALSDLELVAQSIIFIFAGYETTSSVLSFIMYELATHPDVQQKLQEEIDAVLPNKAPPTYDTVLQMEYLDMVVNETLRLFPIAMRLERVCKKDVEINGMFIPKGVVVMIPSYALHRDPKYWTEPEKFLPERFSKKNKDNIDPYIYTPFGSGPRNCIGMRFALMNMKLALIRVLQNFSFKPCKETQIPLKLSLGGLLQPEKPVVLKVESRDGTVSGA

[3] = Half life in human liver microsomes at 1 uM; assay type: ADME, Microsome
[4] = Intrinsic clearance in human liver microsomes at 1 uM; assay type: ADME, Microsome; conditions: read-out: CLH
CYP2D6 = CYP2D6 (Homo sapiens, UniProt P10635); experiment: Inhibition of CYP2D6 (unknown origin) at 10 uM relative to control; assay type: ADME
CYP2D6, sequence (P10635 whole entry): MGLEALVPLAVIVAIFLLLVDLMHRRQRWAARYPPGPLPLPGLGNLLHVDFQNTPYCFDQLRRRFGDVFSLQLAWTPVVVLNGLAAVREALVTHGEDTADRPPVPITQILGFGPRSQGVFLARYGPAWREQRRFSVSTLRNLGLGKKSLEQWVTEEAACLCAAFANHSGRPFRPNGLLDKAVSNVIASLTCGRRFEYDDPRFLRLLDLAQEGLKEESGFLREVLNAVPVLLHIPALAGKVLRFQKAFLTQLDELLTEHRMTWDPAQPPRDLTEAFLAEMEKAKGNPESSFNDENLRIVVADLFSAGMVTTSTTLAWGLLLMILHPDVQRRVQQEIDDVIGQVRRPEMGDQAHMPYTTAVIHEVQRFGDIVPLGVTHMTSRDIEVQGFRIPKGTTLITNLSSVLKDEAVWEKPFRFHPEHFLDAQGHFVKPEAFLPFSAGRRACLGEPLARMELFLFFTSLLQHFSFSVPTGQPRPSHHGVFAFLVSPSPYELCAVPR

CYP1A2 = target: T1, CYP1A2 (Homo sapiens, UniProt P05177); experiment: Inhibition of CYP1A2 (unknown origin) at 10 uM relative to control; assay type: ADME
T1 sequence (P05177 whole entry): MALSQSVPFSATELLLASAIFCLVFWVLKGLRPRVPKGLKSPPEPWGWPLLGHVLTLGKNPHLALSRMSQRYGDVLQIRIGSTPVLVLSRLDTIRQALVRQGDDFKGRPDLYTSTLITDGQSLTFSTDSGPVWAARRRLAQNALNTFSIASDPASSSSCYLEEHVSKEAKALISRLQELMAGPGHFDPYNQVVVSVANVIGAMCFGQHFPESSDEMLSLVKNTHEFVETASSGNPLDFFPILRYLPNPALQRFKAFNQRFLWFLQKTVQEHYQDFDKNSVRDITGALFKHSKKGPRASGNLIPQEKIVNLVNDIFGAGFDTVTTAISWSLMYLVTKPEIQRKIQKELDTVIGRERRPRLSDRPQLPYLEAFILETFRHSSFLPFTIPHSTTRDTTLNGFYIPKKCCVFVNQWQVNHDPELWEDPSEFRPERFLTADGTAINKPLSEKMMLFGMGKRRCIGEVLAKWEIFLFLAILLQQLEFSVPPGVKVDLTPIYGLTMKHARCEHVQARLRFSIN

[5] = target: Voltage-gated inwardly rectifying potassium channel KCNH2 (Homo sapiens, UniProt Q12809); experiment: Inhibition of human ERG by patch clamp method
Voltage-gated inwardly rectifying potassium channel KCNH2, sequence (Q12809 whole entry): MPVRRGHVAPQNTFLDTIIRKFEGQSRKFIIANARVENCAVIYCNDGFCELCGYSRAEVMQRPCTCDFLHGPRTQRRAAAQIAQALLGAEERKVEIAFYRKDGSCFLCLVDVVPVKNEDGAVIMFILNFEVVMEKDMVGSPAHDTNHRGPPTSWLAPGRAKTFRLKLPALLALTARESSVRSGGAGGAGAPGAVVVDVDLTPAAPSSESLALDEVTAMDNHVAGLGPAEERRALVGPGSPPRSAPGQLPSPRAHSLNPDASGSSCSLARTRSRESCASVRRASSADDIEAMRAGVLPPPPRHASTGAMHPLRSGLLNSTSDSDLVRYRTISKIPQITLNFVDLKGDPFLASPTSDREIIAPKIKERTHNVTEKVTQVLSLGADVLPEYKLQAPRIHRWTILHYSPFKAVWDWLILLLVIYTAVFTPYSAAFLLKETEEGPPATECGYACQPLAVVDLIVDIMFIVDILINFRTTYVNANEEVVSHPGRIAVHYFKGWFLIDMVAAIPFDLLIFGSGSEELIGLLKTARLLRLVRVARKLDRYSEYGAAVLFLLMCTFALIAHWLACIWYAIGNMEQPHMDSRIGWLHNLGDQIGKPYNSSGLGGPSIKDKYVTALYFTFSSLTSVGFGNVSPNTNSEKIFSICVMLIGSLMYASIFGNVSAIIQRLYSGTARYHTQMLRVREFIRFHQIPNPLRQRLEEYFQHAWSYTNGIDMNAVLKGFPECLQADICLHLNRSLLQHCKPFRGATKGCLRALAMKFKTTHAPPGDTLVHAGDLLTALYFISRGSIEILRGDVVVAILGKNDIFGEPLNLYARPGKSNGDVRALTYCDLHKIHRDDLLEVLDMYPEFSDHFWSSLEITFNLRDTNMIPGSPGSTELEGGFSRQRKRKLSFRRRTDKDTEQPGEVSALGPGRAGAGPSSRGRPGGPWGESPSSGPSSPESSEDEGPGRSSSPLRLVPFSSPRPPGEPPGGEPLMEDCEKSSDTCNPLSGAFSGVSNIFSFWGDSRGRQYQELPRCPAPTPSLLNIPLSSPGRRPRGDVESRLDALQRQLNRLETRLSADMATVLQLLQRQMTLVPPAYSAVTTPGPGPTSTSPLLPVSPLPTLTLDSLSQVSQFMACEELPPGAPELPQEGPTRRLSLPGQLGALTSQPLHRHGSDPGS

[6] = target: Protein smoothened (Mus musculus) (UniProt P56726); experiment: Antagonist activity at Smo receptor in mouse NIH/3T3 cells assessed as inhibition of Gli1 mRNA expression incubated for 48 hrs by qRT-PCR analysis; assay type: cell-based
Protein smoothened (Mus musculus), sequence (P56726 whole entry): as the sequence (P56726 whole entry) above

[7] = Intrinsic clearance in rat liver microsomes at 1 uM; assay type: ADME, Microsome; conditions: read-out: CLH
CYP2C19 = CYP2C19 (Homo sapiens, UniProt P33261); experiment: Inhibition of CYP2C19 (unknown origin) at 10 uM relative to control; assay type: ADME
CYP2C19, sequence (P33261 whole entry): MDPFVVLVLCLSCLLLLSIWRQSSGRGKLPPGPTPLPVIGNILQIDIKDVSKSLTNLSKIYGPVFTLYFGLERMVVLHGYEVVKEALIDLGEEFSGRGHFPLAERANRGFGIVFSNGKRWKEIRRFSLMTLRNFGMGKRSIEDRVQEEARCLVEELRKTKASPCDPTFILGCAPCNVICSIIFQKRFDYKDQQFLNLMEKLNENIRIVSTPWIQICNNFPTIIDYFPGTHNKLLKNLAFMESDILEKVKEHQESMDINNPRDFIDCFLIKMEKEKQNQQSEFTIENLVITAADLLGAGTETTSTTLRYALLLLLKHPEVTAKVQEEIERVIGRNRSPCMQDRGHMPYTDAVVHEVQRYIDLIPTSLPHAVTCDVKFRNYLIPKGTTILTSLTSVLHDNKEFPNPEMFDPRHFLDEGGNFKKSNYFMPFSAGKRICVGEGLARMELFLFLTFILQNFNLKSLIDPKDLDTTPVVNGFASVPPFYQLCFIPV

CYP2C9 = CYP2C9 (Homo sapiens, UniProt P11712); experiment: Inhibition of CYP2C9 (unknown origin) at 10 uM relative to control; assay type: ADME
CYP2C9, sequence (P11712 whole entry): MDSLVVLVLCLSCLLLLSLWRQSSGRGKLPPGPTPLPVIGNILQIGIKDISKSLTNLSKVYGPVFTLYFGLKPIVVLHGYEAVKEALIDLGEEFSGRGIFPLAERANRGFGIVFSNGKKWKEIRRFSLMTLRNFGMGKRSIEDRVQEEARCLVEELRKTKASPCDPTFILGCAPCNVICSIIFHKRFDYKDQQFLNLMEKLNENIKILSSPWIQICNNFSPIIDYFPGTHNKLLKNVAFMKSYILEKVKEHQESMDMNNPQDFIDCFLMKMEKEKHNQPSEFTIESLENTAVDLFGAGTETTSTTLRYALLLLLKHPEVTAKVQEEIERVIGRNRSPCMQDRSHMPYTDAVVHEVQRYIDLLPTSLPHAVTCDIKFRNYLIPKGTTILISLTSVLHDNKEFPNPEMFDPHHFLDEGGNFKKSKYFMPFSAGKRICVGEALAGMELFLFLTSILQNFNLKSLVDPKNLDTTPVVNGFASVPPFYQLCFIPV

[8] = Apparent permeability from apical to basolateral side in human Caco2 cells; assay type: ADME, cell-based; conditions: Caco-2
[9] = Efflux ratio of apparent permeability in human Caco2 cells; assay type: ADME, cell-based; conditions: Caco-2
[10] = Half life in rat liver microsomes at 1 uM; assay type: ADME, Microsome
Protein smoothened [11] = target: Protein smoothened (Homo sapiens, UniProt Q99835); experiment: Displacement of BODIPY-Cyclopamine from human HA-tagged Smo receptor expressed in human U2OS cells at 1 to 10000 nM incubated for 2 hrs by DAPI staining based fluorescence microscopic method; assay type: cell-based
Protein smoothened (Homo sapiens, UniProt Q99835), sequence (Q99835 whole entry): as the sequence (Q99835 whole entry D473H) above, with H473D counted along it

| Compound | inhibition (HEK293) | IC50 (Protein smoothened [1]) [nM] | also measured |
| --- | --- | --- | --- |
| Cc1ccc(NCc2c(-c3nnc(N4CCC(C(=O)NC5CCCCC5C)CC4)s3)cnn2C)nc1 (configuration not stated) | Active | 1800 |  |
| CC(O)c1ccnn1-c1nnc(N2CCC(C(=O)NC3CCCCC3C)CC2)s1 (configuration not stated) | Active | 3700 |  |
| CC1CCCCC1NC(=O)C1CCN(c2nnc(-n3nccc3CNc3cccnc3)s2)CC1 (configuration not stated) | Active | 69 |  |
| Cc1ccc(NCc2ccnn2-c2nnc(N3CCC(C(=O)N[C@@H]4CCCC[C@@H]4C)CC3)s2)nc1 | Active | 8.4 |  |
| CS(=O)(=O)c1ccc(C(=O)Nc2ccc(Cl)c(-c3ccccn3)c2)c(Cl)c1 [VISMODEGIB] |  |  | IC50 (Medulloblastoma cell): 4.7 nM; Activity (U-251): Non-Toxic; inhibition [2]: inactive |
| Cc1cnc(NCc2ccnn2-c2nnc(N3CCC(C(=O)NC4CCCCC4C)CC3)s2)nc1 (configuration not stated) | Active | 180 |  |
| Cc1ccc(NCc2ccnn2-c2nnc(N3CCC(C(=O)Nc4cnccc4C)CC3)s2)nc1 | Active | 550 |  |
| CC1CCCCC1NC(=O)C1CCN(c2nnc(-c3ccnn3C)s2)CC1 (configuration not stated) |  | > 10000 |  |
| Cc1ccc(NCc2ccnn2-c2nnc(N3CCC(C(=O)NC4CCCCC4C)CC3)s2)cn1 (configuration not stated) | Active | 51 |  |
| CN(C(=O)c1ccc(F)cc1C(F)(F)F)C1CCN(c2nnc(-c3ccnn3C)s2)CC1 |  | > 10000 |  |
| Cc1ccc(NCc2ccnn2-c2nnc(N3CCC(C(=O)NC4CCCCC4C)CC3)s2)nn1 (configuration not stated) | Active | 81 |  |
| CC1CCCCC1NC(=O)C1CCN(c2nnc(-n3nccc3CNc3ccccn3)s2)CC1 (configuration not stated) | Active | 18 |  |
| Cc1ccc(NCc2ccnn2-c2nnc(N3CCC(C(=O)Nc4ccccc4C)CC3)s2)nc1 | Active | 140 |  |
| Cc1ccc(NCc2ccccc2-c2nnc(N3CCC(C(=O)NC4CCCCC4C)CC3)s2)nc1 (configuration not stated) | Active | 290 |  |
| Cc1ccc(OCc2ccnn2-c2nnc(N3CCC(C(=O)NC4CCCCC4C)CC3)s2)nc1 (configuration not stated) | Active | 42 |  |
| Cc1ccc(NCc2ccnn2-c2nnc(N3CCC(C(=O)N[C@H]4CCCC[C@H]4C)CC3)s2)nc1 | Active | 7.1 | inhibition at 10 µM (CYP3A4): 72%; IC50 (Medulloblastoma cell): 0.5 nM; half-life at 1 µM [3]: 38.4 s; CLint scaled at 1 µM [4]: 2700 mL/min/kg; inhibition at 10 µM (CYP2D6): 59%; inhibition at 10 µM (CYP1A2): -4%; Activity (U-251): Non-Toxic; IC50 [5]: > 30000 nM; inhibition [6]: Active; CLint scaled at 1 µM [7]: 2000 mL/min/kg; inhibition [2]: Active; inhibition at 10 µM (CYP2C19): 7.1%; inhibition at 10 µM (CYP2C9): 26%; Papp A→B [8]: 23 ×10⁻⁶ cm/s; efflux ratio [9]: 1.03; half-life at 1 µM [10]: 78 s |
| Cc1ccc(NCc2ccnn2-c2nnc(N3CCC(C(=O)NC4CCCCC4C)CC3)s2)nc1 (racemic) | Active | 7.1 | IC50 (Protein smoothened [11]): 3.9 nM |
| C[C@@H]1CN(c2nnc(Cc3ccccc3)s2)CCN1c1cnc(C(C)(C)O)cn1 |  | > 10000 |  |
| Cc1ccc(NCc2ccnn2-c2nnc(N3CCC(C(=O)Nc4cccnc4C)CC3)s2)nc1 | Active | 460 |  |
| Cc1ccc(NCc2ccnn2-c2nnc(N3CCC(C(=O)Nc4ncccc4C)CC3)s2)nc1 | Active | 280 |  |
| Cc1ccc(NCc2ccnn2-c2nnc(N3CCC(C(=O)Nc4ccncc4C)CC3)s2)nc1 | Active | 220 |  |
| CC1CCCCC1NC(=O)C1CCN(c2nnc(-n3cccn3)s2)CC1 (configuration not stated) |  | > 10000 |  |
| CC1CCCCC1NC(=O)C1CCN(c2nnc(-n3nccc3CO)s2)CC1 (configuration not stated) |  | > 10000 |  |
| Cc1ccc(NCc2ccnn2-c2nnc(N3CCC(C(=O)NC4CCCCC4C)CC3)s2)cc1 (configuration not stated) | Active | 46 | IC50 (Protein smoothened [11]): 18 nM |
| Cc1ccc(CCc2ccnn2-c2nnc(N3CCC(C(=O)NC4CCCCC4C)CC3)s2)nc1 (configuration not stated) | Active | 57 |  |
| Cc1cc(C)n(-c2nnc(N3CCC(C(=O)NC4CCCCC4C)CC3)s2)n1 (configuration not stated) |  | > 10000 |  |
| Cc1cnc(NCc2ccnn2-c2nnc(N3CCC(C(=O)NC4CCCCC4C)CC3)s2)cn1 (configuration not stated) | Active | 410 |  |
